What is called IC50 is the concentration that inhibits the measured activity by half. One may read the EC50 as the midpoint of the concentration-response curve.

Active and inactive are the calls of the source.

In one test the target is T1, Hexokinase HKDC1 (Homo sapiens, UniProt Q2TB90).
T1 sequence (Q2TB90 whole entry): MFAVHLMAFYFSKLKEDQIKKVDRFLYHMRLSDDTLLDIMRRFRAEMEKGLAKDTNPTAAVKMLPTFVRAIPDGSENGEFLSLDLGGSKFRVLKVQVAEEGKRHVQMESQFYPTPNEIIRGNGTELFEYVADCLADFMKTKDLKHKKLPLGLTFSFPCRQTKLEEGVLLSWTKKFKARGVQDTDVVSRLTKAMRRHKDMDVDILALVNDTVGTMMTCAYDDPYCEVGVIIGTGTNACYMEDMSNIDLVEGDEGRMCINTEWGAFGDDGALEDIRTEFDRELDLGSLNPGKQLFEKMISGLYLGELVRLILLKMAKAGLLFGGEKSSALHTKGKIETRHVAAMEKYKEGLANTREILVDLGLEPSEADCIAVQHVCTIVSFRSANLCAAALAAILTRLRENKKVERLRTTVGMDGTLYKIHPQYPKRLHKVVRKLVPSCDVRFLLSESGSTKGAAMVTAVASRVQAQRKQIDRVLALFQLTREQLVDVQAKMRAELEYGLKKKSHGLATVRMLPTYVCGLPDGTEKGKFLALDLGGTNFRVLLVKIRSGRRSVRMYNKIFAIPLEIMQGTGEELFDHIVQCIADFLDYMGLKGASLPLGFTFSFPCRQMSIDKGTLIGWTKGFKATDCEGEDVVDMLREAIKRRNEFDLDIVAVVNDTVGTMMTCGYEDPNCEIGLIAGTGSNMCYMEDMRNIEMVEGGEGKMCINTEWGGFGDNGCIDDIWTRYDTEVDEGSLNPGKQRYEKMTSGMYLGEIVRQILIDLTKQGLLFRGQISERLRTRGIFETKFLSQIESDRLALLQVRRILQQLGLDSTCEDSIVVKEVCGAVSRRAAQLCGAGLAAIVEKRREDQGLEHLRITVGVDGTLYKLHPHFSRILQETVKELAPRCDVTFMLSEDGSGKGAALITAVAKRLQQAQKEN
The test is described as follows: HKDC1 hexokinase inhibitors, dose response, biochemical, W721R variant (AID 504729). It counts as functional.

The target in test [1] is Glutathione-S-transferase (Schistosoma japonicum, UniProt Q26513). The test can be described thus: biotin-GST/anti-GST TR-FRET signal inhibitors, dose response, artefact control for Vif-APOBEC3G degradation inhibitor project, biochemical (AID 1117362). The test is classed as functional.
Chain of Glutathione-S-transferase (Q26513 whole entry): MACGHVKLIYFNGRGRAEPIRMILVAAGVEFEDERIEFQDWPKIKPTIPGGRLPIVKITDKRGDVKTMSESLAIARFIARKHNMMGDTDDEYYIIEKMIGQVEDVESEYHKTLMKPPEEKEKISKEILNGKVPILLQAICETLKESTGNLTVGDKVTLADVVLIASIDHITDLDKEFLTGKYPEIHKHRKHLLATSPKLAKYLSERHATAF
Test [2] deals with T2, 1-phosphatidylinositol 4,5-bisphosphate phosphodiesterase gamma-1 (Homo sapiens, UniProt P19174).
T2 sequence (P19174 whole entry): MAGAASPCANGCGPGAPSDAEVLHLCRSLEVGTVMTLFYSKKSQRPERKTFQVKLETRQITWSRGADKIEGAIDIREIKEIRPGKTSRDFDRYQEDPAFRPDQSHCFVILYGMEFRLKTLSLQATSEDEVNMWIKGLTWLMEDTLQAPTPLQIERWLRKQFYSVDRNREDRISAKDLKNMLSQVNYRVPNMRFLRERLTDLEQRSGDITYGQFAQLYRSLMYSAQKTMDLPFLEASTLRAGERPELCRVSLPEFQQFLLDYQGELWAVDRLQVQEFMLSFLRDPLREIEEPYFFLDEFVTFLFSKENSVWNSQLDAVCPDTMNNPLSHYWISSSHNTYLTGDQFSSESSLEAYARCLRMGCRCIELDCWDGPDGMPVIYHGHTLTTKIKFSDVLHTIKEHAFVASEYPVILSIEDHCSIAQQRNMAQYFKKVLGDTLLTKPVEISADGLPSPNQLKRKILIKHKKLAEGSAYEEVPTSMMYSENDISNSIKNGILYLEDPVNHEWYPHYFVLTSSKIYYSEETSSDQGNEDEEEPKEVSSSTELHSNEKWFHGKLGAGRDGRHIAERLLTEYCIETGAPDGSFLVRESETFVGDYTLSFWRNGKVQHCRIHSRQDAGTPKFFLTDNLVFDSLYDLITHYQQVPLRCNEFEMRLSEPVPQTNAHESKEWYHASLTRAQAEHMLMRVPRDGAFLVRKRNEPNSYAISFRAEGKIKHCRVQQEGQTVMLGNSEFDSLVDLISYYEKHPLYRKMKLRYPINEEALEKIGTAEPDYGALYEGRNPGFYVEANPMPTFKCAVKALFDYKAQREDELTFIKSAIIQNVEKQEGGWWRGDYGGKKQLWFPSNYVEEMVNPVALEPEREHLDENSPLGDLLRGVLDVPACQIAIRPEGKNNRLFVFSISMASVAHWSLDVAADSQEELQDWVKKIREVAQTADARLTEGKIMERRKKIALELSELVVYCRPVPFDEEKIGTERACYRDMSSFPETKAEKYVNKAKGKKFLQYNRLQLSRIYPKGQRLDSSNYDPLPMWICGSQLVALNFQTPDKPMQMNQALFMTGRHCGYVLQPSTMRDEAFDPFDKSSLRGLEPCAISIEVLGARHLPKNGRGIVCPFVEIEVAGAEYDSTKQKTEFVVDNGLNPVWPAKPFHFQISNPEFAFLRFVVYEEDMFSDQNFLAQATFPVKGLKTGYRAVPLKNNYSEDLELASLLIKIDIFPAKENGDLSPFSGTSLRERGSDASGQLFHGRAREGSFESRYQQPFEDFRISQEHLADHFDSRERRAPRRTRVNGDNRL
The test is described as follows: Counterscreen for inhibitors of phospholipase C isozymes (PLC-B3): Fluorescence-based biochemical high throughput dose response assay to identify inhibitors of phospholipase C isozymes (PLC-gamma1).

A short description of test [3]: inhibitors of firefly luciferase expression or activity, dose response, H4 neuroglioma cells, luminescence (AID 1990). It counts as functional, cell-based.
The target of test [4] is Peroxisome proliferator-activated receptor gamma/Nuclear receptor corepressor 2 (Homo sapiens, UniProt P37231+Q9Y618). The test is classed as functional.
Chain of Peroxisome proliferator-activated receptor gamma/Nuclear receptor corepressor 2 (P37231 whole entry): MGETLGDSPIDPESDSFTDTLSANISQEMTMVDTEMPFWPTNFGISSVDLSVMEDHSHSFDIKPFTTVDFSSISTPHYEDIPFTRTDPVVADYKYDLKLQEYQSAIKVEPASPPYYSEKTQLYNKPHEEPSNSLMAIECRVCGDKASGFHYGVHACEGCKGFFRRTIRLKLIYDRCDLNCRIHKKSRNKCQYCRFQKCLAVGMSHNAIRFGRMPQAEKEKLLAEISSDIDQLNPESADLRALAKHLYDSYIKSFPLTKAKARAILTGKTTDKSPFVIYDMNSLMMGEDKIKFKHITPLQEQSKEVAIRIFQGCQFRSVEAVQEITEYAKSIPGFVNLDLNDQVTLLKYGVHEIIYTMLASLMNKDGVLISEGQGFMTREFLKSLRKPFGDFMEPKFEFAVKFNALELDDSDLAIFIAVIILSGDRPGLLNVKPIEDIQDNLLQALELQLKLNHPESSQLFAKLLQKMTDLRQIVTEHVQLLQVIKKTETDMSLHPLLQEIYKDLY
Chain of Peroxisome proliferator-activated receptor gamma/Nuclear receptor corepressor 2 (Q9Y618 whole entry): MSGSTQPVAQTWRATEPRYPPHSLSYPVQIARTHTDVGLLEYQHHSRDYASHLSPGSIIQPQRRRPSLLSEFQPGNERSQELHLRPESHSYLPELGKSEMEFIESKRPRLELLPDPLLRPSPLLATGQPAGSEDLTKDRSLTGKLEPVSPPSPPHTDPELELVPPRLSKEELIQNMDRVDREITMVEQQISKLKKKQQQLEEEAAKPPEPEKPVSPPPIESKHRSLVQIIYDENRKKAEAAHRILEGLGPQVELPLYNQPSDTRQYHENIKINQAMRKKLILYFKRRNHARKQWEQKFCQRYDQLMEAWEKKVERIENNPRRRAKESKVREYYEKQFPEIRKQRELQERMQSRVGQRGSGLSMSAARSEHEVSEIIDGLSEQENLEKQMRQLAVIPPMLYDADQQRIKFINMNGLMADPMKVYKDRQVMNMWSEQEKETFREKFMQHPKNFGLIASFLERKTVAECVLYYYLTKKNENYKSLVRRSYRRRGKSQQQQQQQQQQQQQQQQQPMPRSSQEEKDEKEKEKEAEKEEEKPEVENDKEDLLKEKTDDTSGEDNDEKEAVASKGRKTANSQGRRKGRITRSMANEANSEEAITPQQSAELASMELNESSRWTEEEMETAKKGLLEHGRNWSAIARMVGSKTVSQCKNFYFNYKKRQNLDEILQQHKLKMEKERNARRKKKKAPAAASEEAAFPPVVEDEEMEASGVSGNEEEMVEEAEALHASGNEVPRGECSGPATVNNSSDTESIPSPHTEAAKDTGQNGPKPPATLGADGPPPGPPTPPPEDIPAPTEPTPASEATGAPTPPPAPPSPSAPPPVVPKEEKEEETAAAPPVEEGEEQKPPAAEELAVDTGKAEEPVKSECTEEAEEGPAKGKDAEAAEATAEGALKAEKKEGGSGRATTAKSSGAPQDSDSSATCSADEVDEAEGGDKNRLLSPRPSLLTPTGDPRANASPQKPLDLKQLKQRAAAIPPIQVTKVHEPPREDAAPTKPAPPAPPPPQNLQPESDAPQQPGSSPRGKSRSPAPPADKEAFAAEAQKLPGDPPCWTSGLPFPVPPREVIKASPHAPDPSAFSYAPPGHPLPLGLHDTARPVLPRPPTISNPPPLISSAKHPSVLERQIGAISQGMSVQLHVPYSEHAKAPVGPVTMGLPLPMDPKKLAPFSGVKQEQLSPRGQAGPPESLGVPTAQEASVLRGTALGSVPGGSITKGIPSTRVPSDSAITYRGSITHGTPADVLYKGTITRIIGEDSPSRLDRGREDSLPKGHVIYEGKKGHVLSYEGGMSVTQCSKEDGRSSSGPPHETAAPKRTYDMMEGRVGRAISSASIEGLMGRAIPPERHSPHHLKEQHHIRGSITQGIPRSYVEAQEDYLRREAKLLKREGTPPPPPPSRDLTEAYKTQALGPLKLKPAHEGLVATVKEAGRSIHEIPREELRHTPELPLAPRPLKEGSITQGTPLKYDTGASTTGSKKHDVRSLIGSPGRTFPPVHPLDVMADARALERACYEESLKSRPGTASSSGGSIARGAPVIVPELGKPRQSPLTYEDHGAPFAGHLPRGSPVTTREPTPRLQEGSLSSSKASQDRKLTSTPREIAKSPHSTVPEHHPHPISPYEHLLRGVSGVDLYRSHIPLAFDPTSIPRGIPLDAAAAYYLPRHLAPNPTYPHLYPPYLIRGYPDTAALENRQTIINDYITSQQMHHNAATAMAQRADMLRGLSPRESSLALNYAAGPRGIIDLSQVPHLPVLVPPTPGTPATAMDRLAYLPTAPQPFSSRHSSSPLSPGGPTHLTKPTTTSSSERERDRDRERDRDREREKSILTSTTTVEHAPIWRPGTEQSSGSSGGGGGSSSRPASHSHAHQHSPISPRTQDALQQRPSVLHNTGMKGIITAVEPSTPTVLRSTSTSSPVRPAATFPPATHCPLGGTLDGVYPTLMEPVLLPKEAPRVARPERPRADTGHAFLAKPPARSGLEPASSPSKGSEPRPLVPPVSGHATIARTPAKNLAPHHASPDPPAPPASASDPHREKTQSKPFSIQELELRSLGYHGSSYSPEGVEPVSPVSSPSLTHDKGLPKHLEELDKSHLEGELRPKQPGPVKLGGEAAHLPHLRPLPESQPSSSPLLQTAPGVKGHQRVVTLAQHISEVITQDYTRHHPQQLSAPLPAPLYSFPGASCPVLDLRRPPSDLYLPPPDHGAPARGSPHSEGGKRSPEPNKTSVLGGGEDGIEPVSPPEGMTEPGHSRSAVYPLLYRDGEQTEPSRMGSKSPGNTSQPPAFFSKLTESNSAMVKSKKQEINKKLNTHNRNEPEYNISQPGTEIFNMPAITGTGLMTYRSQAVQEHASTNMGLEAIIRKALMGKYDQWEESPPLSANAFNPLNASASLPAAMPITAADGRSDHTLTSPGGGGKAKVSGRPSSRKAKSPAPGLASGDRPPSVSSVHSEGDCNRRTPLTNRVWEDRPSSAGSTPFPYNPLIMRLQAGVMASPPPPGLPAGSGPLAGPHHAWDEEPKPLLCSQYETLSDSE
Test [5] concerns Streptococcus sp. 'group A'. The test is described as follows: growth inhibition of control SK(-) GAS strain, dose response, counter-screen for streptokinase expression inhibitor project, luminescence, kanamycin, BacTiterGlo, confirmation (AID 1900). The test is classed as functional, organism-based.
For the next test, the target named is T3, Cysteine protease ATG4B (Homo sapiens, UniProt Q9Y4P1).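 Also: Fluorescence-based dose-response confirmation assay measuring inhibition of ATG4B activity.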
T3 sequence (Q9Y4P1 whole entry): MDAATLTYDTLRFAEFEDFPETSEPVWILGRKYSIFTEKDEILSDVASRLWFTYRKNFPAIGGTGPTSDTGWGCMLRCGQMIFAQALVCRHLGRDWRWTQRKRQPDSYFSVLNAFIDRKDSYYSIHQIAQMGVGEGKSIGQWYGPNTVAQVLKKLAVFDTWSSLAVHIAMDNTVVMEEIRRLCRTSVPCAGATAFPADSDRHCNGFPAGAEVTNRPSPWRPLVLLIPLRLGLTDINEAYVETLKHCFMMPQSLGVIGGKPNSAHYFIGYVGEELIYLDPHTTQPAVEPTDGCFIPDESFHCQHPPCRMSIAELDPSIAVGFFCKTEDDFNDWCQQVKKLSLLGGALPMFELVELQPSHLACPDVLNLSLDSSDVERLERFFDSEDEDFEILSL
The test is classed as functional.

A short description of test [6]: cytotoxicity in HEK-293T cells, dose response, cytotoxicity control for TCR NF-kB inhibitor project, luminescence, T-cell screen hits (AID 489026).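 Also: cells exposed to compound about 14 hours before the viability readout.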 The test is classed as functional, cell-based.

For the compound `O=C1C=C(c2c(O)ccc3ccccc23)c2ccccc2C1=O`, the IC50 at Hexokinase HKDC1 was 2.47 µM (active); in test [1] it was > 100 µM (active).
In the case of `O=C(CCN1C(=O)/C(=C\c2ccco2)SC1=S)Nc1ccc(C(=O)O)c(O)c1`, the IC50 in test [2] was > 122 µM (inactive).
Turning to `Cc1nc2c(=O)n(C)c(=O)nc-2n(C)n1`, the EC50 was 0.235 µM (active) in test [3] and 4.74 µM (active) in test [5]. The values for the IC50 (in test [4]; on Cysteine protease ATG4B; in test [6]) were > 39.8 µM (not active), 3.73 µM (active) and 9.41 µM (active), respectively.

For the origin of these results see ChEMBL document CHEMBL1201862, “PubChem BioAssay data set” (2004).
